Source: patent publication US20150320774A1, “FORMULATIONS OF CYCLOPHOSPHAMIDE LIQUID CONCENTRATE” (AuroMedics Pharma LLC, priority 2014, published 2015)
Like-named read-outs stand apart in the source and are kept apart here.

Experiments:
[1] = 500 mg/ml; for colour of solution upon storage: all temperature conditions
Method: Since these solvents provided more than adequate solubility, the stability of the solutions containing cyclophosphamide at a concentration of 500 mg/ml was examined.

physchem = details: organic solvent or mixture
From the text: In this example, studies were initiated to determine the solubility of cyclophosphamide monohydrate in pharmaceutically acceptable solvents such as propylene glycol, polyethylene glycol and ethanol.

In the case of `O.O=P1(N(CCCl)CCCl)NCCCO1` (stereo not shown) [cyclophosphamide monohydrate, 2-[bis(2-chloroethyl)amino]-tetrahydro-2H-1,3,2-oxazaphosphorine-2-oxide monohydrate], the degradation ([1]; PEG 400 as sole solvent) is reported as “Significant degradation”, the “colour of solution upon storage” value ([1]; PEG 400 as sole solvent) is reported as “turning visibly yellow in color” and the degradation ([1]; PG as sole solvent) is reported as “Significant degradation”. For the same compound, the “colour of solution upon storage” value ([1]; PG as sole solvent) was “turning visibly yellow in color”, the solubility (physchem; ethanol) was over 500 mg/mL and the solubility (physchem; polyethylene glycol) was over 500 mg/mL. It also gave a solubility (physchem; propylene glycol) of over 500 mg/mL.
